For one experiment, the target named is T1, bombesin receptor (Homo sapiens, UniProt P30550).
T1 construct: endogenous in cells; host or cells: PC3 cells (ATCC)
As to the kind of experiment: ^125I-[Nle^14]-bombesin binding to PC3 cells. Conditions: for Specific Binding (% control) of ^125I-[Nle14]-bombesin: 37° C.

Another experiment deals with T2, 5-LOX (Homo sapiens, UniProt P09917).
T2 sequence (P09917 1-674): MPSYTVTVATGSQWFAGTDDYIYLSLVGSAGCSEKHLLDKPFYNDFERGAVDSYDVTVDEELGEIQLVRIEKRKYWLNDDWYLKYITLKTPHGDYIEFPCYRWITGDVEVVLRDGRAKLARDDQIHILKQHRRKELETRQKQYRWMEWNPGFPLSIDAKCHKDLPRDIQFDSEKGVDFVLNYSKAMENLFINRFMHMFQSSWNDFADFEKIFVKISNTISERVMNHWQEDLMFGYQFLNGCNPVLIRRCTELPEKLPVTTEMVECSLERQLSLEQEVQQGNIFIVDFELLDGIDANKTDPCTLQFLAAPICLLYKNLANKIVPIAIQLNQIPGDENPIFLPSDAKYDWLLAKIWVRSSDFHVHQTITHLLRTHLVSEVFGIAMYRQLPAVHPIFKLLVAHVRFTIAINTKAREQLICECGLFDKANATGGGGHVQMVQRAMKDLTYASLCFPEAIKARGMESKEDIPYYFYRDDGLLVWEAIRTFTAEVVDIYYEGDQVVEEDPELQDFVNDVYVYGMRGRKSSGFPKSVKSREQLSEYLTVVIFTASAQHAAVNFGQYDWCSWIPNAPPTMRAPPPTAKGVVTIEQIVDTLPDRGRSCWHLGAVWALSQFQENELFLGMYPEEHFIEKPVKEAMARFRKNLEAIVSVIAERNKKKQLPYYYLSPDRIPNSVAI
As to conditions: range of reported values, various blood cell systems; cited from earlier work.

Experiment [1] has as its target T3, NTR1 (Homo sapiens, UniProt P30989). Kind of experiment: ^125I-NT binding to isolated PC3 cell membranes. Also noted: Ab-NTR1 detected two major bands in extracts of PC3 cells, the parent protein of 50 kDa; endogenous in cells; host or cells: PC3 cells (ATCC).
The target of experiment [2] is T3, NTR1. As to the kind of experiment: ^125I-NT binding to PC3 cells. As to conditions: for maximal increase in NT binding to PC3 cells: as much as / up to, dose-response.
For experiment [3], the target named is T3, NTR1. As to the kind of experiment: NT-induced IP formation in PC3 cells. The format is cell-based. On the set-up: Ab-NTR1 detected two major bands in extracts of PC3 cells, the parent protein of 50 kDa; endogenous in cells; host or cells: PC3 cells (ATCC).
Experiment [4] concerns the target T4, vasopressin (V1a) receptor (Homo sapiens, UniProt P37288).
T4 construct: endogenous in cells; host or cells: PC3 cells (ATCC)
As to the kind of experiment: ^125I-HOLVA binding to PC3 cells.

A further experiment deals with PC3 cells. As to the kind of experiment: Ionomycin-stimulated IP formation in PC3 cells. The format is cell-based.
Experiment [5] deals with neurotensin receptor NTR1 of PC3 cells (human) (UniProt P30989). Kind of experiment: UV crosslinking to PC3 cells with NIF, immunoprecipitation with Ab-NTR1.
The target is the same in experiment [6]. As to the kind of experiment: UV crosslinking to PC3 cells with phloretin, immunoprecipitation with Ab-NTR1.
For experiment [7] the target is unchanged. Kind of experiment: UV crosslinking to PC3 cells with verapamil, immunoprecipitation with Ab-NTR1.
Experiment [8] shares this target. Kind of experiment: UV crosslinking to PC3 cells with 50 µM NDGA, immunoprecipitation with antiserum to NTR1.
The target is the same in experiment [9]. Kind of experiment: UV crosslinking to PC3 cells with 50 µM MK886, immunoprecipitation with antiserum to NTR1.
Setting [10] is: vitamin-like antioxidants at 20-180 μM, n=3.

Read-outs that look alike come from different tables or passages of the source. Non-standard residues stand in square brackets, D forms with d. Residues, ends and D or L forms follow the SMILES beside them. *: point of attachment. Tyr(3-I) = N[C@@H](Cc1ccc(O)c(I)c1)C(=O)O; pGlu = O=C1CC[C@@H](C(=O)O)N1; Nle = CCCC[C@H](N)C(=O)O; PhAc = O=C(Cc1ccccc1)*

T1 sequence (P30550 whole entry): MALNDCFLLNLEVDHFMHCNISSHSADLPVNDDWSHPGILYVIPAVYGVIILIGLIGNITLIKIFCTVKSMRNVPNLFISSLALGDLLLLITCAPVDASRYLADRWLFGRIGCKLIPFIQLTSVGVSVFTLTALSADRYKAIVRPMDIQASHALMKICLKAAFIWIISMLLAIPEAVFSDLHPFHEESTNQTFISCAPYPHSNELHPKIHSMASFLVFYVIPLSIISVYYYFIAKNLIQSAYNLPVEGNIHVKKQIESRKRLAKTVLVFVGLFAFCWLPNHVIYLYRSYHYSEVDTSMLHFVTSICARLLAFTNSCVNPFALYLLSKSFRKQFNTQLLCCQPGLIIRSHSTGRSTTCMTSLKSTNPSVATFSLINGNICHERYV
neurotensin receptor NTR1 of PC3 cells (human), sequence (P30989 whole entry): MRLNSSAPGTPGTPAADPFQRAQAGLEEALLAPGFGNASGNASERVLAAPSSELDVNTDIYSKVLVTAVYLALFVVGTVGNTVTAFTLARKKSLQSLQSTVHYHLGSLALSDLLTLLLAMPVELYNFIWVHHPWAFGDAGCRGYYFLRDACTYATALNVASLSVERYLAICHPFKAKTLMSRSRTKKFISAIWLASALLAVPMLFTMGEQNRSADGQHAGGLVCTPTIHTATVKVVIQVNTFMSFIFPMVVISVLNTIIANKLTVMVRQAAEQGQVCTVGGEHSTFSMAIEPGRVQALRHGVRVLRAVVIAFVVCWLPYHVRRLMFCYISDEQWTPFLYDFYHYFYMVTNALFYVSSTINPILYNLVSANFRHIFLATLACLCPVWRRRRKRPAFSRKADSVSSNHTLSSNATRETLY
T3 sequence (P30989 whole entry): as above
T4 sequence (P37288 whole entry): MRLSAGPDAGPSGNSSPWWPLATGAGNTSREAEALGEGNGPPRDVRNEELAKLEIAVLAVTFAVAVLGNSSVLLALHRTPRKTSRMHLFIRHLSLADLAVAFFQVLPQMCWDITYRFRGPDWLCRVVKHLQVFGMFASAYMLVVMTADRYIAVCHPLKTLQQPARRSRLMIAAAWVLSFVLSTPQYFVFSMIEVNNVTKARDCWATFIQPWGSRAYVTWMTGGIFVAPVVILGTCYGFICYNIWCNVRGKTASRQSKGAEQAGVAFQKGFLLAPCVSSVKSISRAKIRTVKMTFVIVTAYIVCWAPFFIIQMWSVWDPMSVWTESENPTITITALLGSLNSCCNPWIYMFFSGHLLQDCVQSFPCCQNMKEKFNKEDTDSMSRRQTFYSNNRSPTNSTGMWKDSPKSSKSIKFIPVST

`CC1=C(C)C(=O)C(CCCCC#CCCCC#CCO)=C(C)C1=O` [AA861]: the “Specific Binding (% control) of ^125I-[Nle14]-bombesin” value is reported as 112 ± 4 % control on bombesin receptor (12 μM LOX blocker) and 135 ± 6 % control at bombesin receptor (60 μM LOX blocker). Besides, the IC50 (in general, the concentration that gives 50% inhibition) at 5-LOX was 0.1 to 2 µM. Moreover, the “Specific NT-Binding (% control)” value on NTR1 [1] (10 μM LOX pathway blocker) is given as 107 ± 4 % control; on NTR1 [1] (25 μM LOX pathway blocker) it was 109 ± 4 % control; at NTR1 [1] (75 μM LOX pathway blocker), 110 ± 5 % control.

In the case of `O=C(/C=C/c1ccc(O)c(O)c1)OCCc1ccccc1` [CAPE, caffeic acid phenethyl ester], on NTR1 [2], the EC50 (in general, the midpoint of the concentration-response curve) worked out at 34 µM and the “maximal increase in NT binding to PC3 cells” value is recorded as not above 2.8 fold. The IC50 at NTR1 [3] amounted to 18 µM.

As to `CCNC(=O)[C@H]1O[C@@H](n2cnc3c(N)nc(NCCc4ccc(CCC(=O)O)cc4)nc32)[C@H](O)[C@@H]1O` [CGS21683], at 5-LOX, the IC50 was 0.01 to 1 µM. In addition, the “NT Binding Efficacy % increase” value on NTR1 [2] (LOX blockers) stood at 228 % increase.

As to `c1ccc2c(c1)[I+]c1ccccc1-2` [Diphenylene iodonium], the midpoint of the response on NTR1 [2], the EC50, lay at 61 µM. Besides, the half-maximal inhibitory concentration (IC50) at NTR1 [3] ([agent] giving 50% decrease in IP formation, read-out: IP Formation IC50) turned out to be 35 µM.

With `O=C(O)CN(CCOCCOCCN(CC(=O)O)CC(=O)O)CC(=O)O` [EGTA, ethylene glycol tetra-acetic acid], at NTR1 [2], the “increase in NT binding” value turned out to be 38±6 % increase. Also, the “effect on NT-induced IP formation” value on NTR1 [3] (Ca^2+-chelator added) is on record as “inhibited”.

For `CCCCCC#CCC#CCC#CCC#CCCCC(=O)O` [ETYA, 5,8,11,14-eicosatetraynoic acid], the IC50 at 5-LOX was 6 to 50 µM.

On to `Cc1cc2c(C(C)C)c(O)c(O)c(C=O)c2c(O)c1-c1c(C)cc2c(C(C)C)c(O)c(O)c(C=O)c2c1O` [Gossypol, gossypol], for which the “NT Binding Efficacy % increase” value on NTR1 [2] (LOX blockers) is on record as 170 % increase. Besides, on NTR1 [3] ([agent] that decreased IP formation by 40%, read-out: IP Formation IC50), the IC50 is 20 µM.

As for `CC(Cc1ccc(O)c(O)c1)C(C)Cc1ccc(O)c(O)c1` (stereo not shown) [NDGA, Nordihydroguaiaretic acid], the “Specific Binding (% control) of ^125I-[Nle14]-bombesin” value on bombesin receptor (12 μM LOX blocker) was determined as 110 ± 3 % control; at bombesin receptor (60 μM LOX blocker), 127 ± 4 % control. The “Specific NT-Binding (% control)” value at NTR1 [1] (10 μM LOX pathway blocker) is given as 110 ± 5 % control; at NTR1 [1] (25 μM LOX pathway blocker), 121 ± 8 % control; on NTR1 [1] (75 μM LOX pathway blocker), 132 ± 10 % control.

`CC1=C(/C=C/C(C)=C/C=C/C(C)=C/C(=O)O)C(C)(C)CCC1` [Retinoic Acid, retinoic acid]: the “Specific NT-Binding (% control)” value is recorded as 102 ± 3 % control at NTR1 [1] (10 μM LOX pathway blocker), 115 ± 4 % control at NTR1 [1] (25 μM LOX pathway blocker) and 142 ± 8 % control at NTR1 [1] (75 μM LOX pathway blocker).

Consider `CCCCCC(O)c1cccc(OCc2ccc3ccccc3n2)c1` (stereo not shown) [Rev5901], for which the entries for the “Specific Binding (% control) of ^125I-[Nle14]-bombesin” value on bombesin receptor (12 μM LOX blocker) and on bombesin receptor (60 μM LOX blocker) were 107 ± 3 % control and 119 ± 3 % control, respectively. Moreover, the “NT Binding Efficacy % increase” value at NTR1 [2] (LOX blockers) came out at 160 % increase. In addition, the “maximal increase in NT binding to PC3 cells” value on NTR1 [2] is on record as not above 2.4 fold. Also, the “Specific NT-Binding (% control)” value on NTR1 [1] (10 μM LOX pathway blocker) is on record as 101 ± 4 % control; on NTR1 [1] (25 μM LOX pathway blocker), 113 ± 5 % control; on NTR1 [1] (75 μM LOX pathway blocker), 110 ± 5 % control.

Take `COc1ccc(CCCOC(Cn2ccnc2)c2ccc(OC)cc2)cc1` (stereo not shown) [SKF-96365]: the “Specific Binding (% control) of ^125I-[Nle^14]-bombesin” value amounted to 99 ± 2 % control on bombesin receptor (12 μM agent) and 106 ± 4 % control at bombesin receptor (60 μM agent).

On to `COc1ccc(CCN(C)CCCC(C#N)(c2ccc(OC)c(OC)c2)C(C)C)cc1OC` (stereo not shown) [Verapamil, verapamil], for which the “Specific Binding (% control) of ^125I-[Nle^14]-bombesin” value on bombesin receptor (12 μM agent) and at bombesin receptor (60 μM agent) was 104 ± 4 % control throughout.

With `CCOc1ccc(C[C@@H](NC(=O)Cc2ccccc2)C(=O)N[C@@H](Cc2ccccc2)C(=O)N[C@@H](CCC(N)=O)C(=O)N[C@@H](CC(N)=O)C(=O)N[C@@H](CCCCN)C(=O)N2CCC[C@H]2C(=O)N[C@@H](CCCNC(=N)N)C(N)=O)cc1` [^125I-HOLVA, des-Gly-[Phaa1, D-Tyr(Et)2, Lys6, Arg8]-vasopressin] (PhAc-[dY](Et)FQNKPR-NH2; N-terminus and C-terminus assumed), the “Specific Binding (% of total)” value in experiment [4] (10^5 cpm ^125I-ligand) was 77 % of total. Also, the Bmax in experiment [4] (Scatchard analysis) turned out to be 156 ± 12 fmol/mg.

Regarding `CCCC[C@H](NC(=O)[C@H](CC(C)C)NC(=O)[C@H](Cc1c[nH]cn1)NC(=O)CNC(=O)[C@@H](NC(=O)[C@H](C)NC(=O)[C@H](Cc1c[nH]c2ccccc12)NC(=O)[C@H](CCC(N)=O)NC(=O)[C@H](CC(N)=O)NC(=O)CNC(=O)[C@H](Cc1ccc(O)c(I)c1)NC(=O)[C@H](CCCNC(=N)N)NC(=O)[C@H](CCC(N)=O)NC(=O)[C@@H]1CCC(=O)N1)C(C)C)C(N)=O` [^125I-[Nle^14]-bombesin] ([pGlu]QR[Tyr(3-I)]GNQWAVGHL[Nle]-NH2; C-terminus assumed), on bombesin receptor (10^5 cpm ^125I-ligand), the “Specific Binding (% of total)” value is on record as 95 % of total. For the same compound, at bombesin receptor (Scatchard analysis), the Bmax is on record as 1016 ± 64 fmol/mg.

With `C[C@H](CCC(=O)O)C[C@H](C)C[C@H](C)C(=O)/C=C(\O)[C@H](C)C[C@H](C)C/C=C/[C@@H](C)[C@@H](O)[C@@H](C)[C@@H](O)C[C@@H]1CC[C@@](C)([C@H]2CC[C@@](C)([C@@H](C)O)O2)O1` [ionomycin], the “IP formation (% control)” value with PC3 cells (2 μM ionomycin) is on record as 139±6%; in the experiment on PC3 cells (10 μM ionomycin), 157±5 % control; with PC3 cells (20 μM ionomycin), 324±14%; in the experiment on PC3 cells (25 μM ionomycin), 322±11 % control. The “share of the NT response reproduced” value with PC3 cells (IP formation) was approximately 63%. Besides, the “reversal of NIF enhancement of NT binding” value on NTR1 [2] (20 μM ionomycin) is “not reversed”.

`Clc1ccc(COC(Cn2ccnc2)c2ccc(Cl)cc2Cl)c(Cl)c1` (stereo not shown) [miconazole]: the “NT Binding Efficacy % increase” value at NTR1 [2] (maximal % increase in NT binding observed for each agent) is 75 % increase. In addition, on NTR1 [3] (maximal % decrease in NT-induced IP formation), the “IP Formation Efficacy (% decrease)” value is reported as 54 % decrease.

Regarding `O=c1c(O)c(-c2ccc(O)c(O)c2)oc2cc(O)cc(O)c12` [quercetin], on NTR1 [2] (FIG. 21A), the “effect on NT binding (figure legend)” value is listed as “enhanced NT-binding to NTR”. The “effect on NT-induced IP formation (figure legend)” value at NTR1 [3] (FIG. 21B) is on record as “inhibited NT-induced IP formation”.

Regarding `Cc1c(C)c2c(c(C)c1O)CCC(C)(C(=O)O)O2` (stereo not shown) [trolox], the “effect on NT binding” value at NTR1 [2] (general reducing agents and antioxidants) is recorded as “not much affected”; on NTR1 [2] (used at 10-100 μM, n=3), “without effect”.

Consider `Cc1c(C)c2c(c(C)c1O)CC[C@@](C)(CCC[C@H](C)CCC[C@H](C)CCCC(C)C)O2` [α-tocoferol], for which the “effect on NT binding” value at NTR1 [2] (setting [10]) was “ineffective”.

For the compound `CC1=C(/C=C/C(C)=C/C=C/C(C)=C/C=C/C=C(C)/C=C/C=C(C)/C=C/C2=C(C)CCCC2(C)C)C(C)(C)CCC1` [β-carotene], the “effect on NT binding” value at NTR1 [2] (setting [10]) is “ineffective”.

For the compound (−)-epigallocatechin gallate, the “effect on NT binding” value on NTR1 [2] (used at 10-100 μM, n=3) is listed as “without effect”.

For the compound ^125I-[4-azido-Phe^6]-NT (peptide), the fold increase in radioactivity associated with NTR1 in [5] turned out to be 2.8 fold; in [6], 1.8 fold; in [7], 1.5 fold; in experiment [8], 2.6 fold; in experiment [9], 2.7 fold.

The record behind these values is US20060062729A1, “Enhanced ligand binding to neurotensin receptors” (priority 2004, published 2006).
